Legend:
recombinant CYP-17 = molecular target: T1, recombinant CYP-17 (Homo sapiens, UniProt P05093); experiment: Cyp17 assay: AD293 cells over-expressing recombinant CYP-17, 3H-acetic acid release from [21-3H] 17α-hydroxyl-Pregnenolone; assay type: cell-based
T1 construct: expressed in transfected cells; host or cells: AD293
T1 sequence (P05093 1-508): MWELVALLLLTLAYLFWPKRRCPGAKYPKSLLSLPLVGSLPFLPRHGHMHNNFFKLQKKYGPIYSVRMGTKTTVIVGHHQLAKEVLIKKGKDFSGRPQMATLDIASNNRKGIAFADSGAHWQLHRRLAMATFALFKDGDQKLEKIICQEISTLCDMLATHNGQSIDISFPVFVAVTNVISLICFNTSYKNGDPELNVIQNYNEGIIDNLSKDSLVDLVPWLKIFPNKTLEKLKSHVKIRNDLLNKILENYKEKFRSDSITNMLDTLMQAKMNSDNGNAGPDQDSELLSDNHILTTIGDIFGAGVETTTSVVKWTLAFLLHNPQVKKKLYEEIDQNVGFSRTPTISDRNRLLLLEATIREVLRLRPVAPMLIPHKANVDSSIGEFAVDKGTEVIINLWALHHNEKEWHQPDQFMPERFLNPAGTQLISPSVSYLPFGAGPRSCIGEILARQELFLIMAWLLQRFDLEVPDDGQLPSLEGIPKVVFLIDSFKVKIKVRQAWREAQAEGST
Description: Cyp17 assay protocol: AD293 cells that stably over-express recombinant CYP-17 were seeded in 96 well plates coated with poly D-lysine (15,000 cell per well) and incubated at 37° C. for 24 hours in Dulbecco's Modified Eagle Medium (DMEM) with Fetal Bovine Serum (FBS) that is stripped of hormones by charcoal treatment. The media is then removed, the cells are washed once with Phosphate buffer saline solution, and 50 μL Dulbecco's Modified Eagle Medium (DMEM) with Fetal Bovine Serum (FBS) that is stripped of hormones by charcoal treatment is added. Compounds of the disclosure are then added to the wells in eight concentration spanning 10 μM to 4.5 nM, and the plates are incubated for an additional 60 minutes at 37° C. [21-^3H] 17α-hydroxyl-Pregnenolone is then added (50 nCi per well, 31.25 nM) and the plates are incubated for an additional 4 hours at 37° C. The media is then collected, 200 μL, of chloroform is added, and the mixture is shaken for 1 hour. The aqueous layer is then separated and analyzed for the presence of ^3H-acetic acid using a Perkin Elmer Topcount NXT to determine IC50s of the compounds of the disclosure.

Cyp19 = molecular target: T2, Cyp19 (Homo sapiens, UniProt P11511); experiment: Cyp19 off-target counter screen; assay type: biochemical; details: off-target enzyme
T2 sequence (P11511 1-503): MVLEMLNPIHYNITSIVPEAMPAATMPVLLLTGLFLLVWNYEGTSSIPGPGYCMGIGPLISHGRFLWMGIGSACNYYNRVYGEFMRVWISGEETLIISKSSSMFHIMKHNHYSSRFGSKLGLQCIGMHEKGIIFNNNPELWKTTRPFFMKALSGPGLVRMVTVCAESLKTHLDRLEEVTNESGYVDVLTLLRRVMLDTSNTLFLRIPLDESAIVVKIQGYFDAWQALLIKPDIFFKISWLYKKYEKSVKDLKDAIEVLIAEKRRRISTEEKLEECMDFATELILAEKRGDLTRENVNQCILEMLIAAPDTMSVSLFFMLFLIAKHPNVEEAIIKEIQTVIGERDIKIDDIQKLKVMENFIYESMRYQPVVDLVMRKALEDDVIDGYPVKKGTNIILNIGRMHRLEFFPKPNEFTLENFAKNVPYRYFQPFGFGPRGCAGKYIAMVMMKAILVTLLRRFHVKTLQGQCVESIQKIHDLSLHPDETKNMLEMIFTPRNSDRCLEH

Cyp3A4 = Cyp3A4 (Homo sapiens, UniProt P08684); experiment: Cyp3A4 off-target counter screen; assay type: in vitro ADME; details: off-target enzyme
Cyp3A4, sequence (P08684 whole entry): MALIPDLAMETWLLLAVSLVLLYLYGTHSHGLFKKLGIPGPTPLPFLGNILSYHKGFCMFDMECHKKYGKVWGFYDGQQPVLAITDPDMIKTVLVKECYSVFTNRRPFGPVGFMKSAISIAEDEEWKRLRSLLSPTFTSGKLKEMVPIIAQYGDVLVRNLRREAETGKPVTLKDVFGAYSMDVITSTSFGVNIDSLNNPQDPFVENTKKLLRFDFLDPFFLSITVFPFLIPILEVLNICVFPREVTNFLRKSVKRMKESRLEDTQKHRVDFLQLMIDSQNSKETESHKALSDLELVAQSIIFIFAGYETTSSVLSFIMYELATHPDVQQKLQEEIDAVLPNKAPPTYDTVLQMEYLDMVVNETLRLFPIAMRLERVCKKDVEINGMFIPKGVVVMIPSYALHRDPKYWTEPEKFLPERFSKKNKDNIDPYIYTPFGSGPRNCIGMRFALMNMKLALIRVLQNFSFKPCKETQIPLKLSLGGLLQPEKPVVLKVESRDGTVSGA

IC50 (recombinant CYP-17): 8 nM
IC50 (Cyp19): 350 nM
IC50 (Cyp3A4): 109 nM
Structure (SMILES): CC(=O)N1CCN(c2ccc(CO[C@H]3CO[C@](Cn4ccnc4)(c4ccc(Cl)cc4Cl)OC3)cc2)CC1 [drawing 112]

From patent US20160244436A1, “NOVEL FUNCTIONALIZED 5-(PHENOXYMETHYL)-1,3-DIOXANE ANALOGS EXHIBITING CYTOCHROME P450 INHIBITION AND THEIR METHOD OF USE” (CORTENDO AB (PUBL), priority 2013, published 2016)
